The test relates to symptoms of leaky gut. In words: Preliminary testing: effect on symptoms of leaky gut. The format is in vivo. The text has this:
This may be due to the failure of the D amino acid isomer to be transported by the different L amino acid transport systems that exist within the body, or by completion for renal excretion that allows the L isomer to persist for a longer duration.

Structures are written as SMILES.

Regarding `C[C@](N)(Cc1ccc(O)cc1)C(=O)O` (single isomer, unassigned) [Demser, α-methyl-L-tyrosine], the “duration of effect on leaky gut symptoms” value is reported as “short lived” and the “effect on the symptoms of leaky gut” value is given as “beneficial effect”.

The record behind these values is US12453709B2, “Compositions and methods for treating autism” (priority 2013, dated 2025).
